Holding throughout (assay): relative viability (nuclei count vs DMSO), 5 days (fraction); higher = more cells survive
Compound in the test “Venetoclax + Vorinostat”: CC1(C)CCC(CN2CCN(c3ccc(C(=O)NS(=O)(=O)c4ccc(NCC5CCOCC5)c([N+](=O)[O-])c4)c(Oc4cnc5[nH]ccc5c4)c3)CC2)=C(c2ccc(Cl)cc2)C1 [Venetoclax] + O=C(CCCCCCC(=O)Nc1ccccc1)NO [Vorinostat] (partner 1 µM)
The essentials:
(§1)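 Lung cancer cell lines, seeded in 1536-well plates, were treated the following day by pin tool with a single drug or with five library-drug doses (not always all listed) in √10 steps on top of a fixed anchor-drug dose. Cells were fixed and nuclei stained in one step after 5 days, and nuclei were counted. Relative viability is the nuclei count for treated wells divided by that for vehicle wells, reported as medians of duplicate plates.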

Compound in the test “Selumetinib + Linsitinib”: Cn1cnc2c(F)c(Nc3ccc(Br)cc3Cl)c(C(=O)NOCCO)cc21 [Selumetinib] + C[C@]1(O)C[C@@H](c2nc(-c3ccc4ccc(-c5ccccc5)nc4c3)c3c(N)nccn32)C1 [Linsitinib] (partner 1 µM)
The essentials: as §1

Compound in the test “Selumetinib + Pictilisib”: Cn1cnc2c(F)c(Nc3ccc(Br)cc3Cl)c(C(=O)NOCCO)cc21 [Selumetinib] + CS(=O)(=O)N1CCN(Cc2cc3nc(-c4cccc5[nH]ncc45)nc(N4CCOCC4)c3s2)CC1 [Pictilisib] (partner 1 µM)
A digest of the protocol:
as §1

Compound in the test “Venetoclax + OSI-027”: CC1(C)CCC(CN2CCN(c3ccc(C(=O)NS(=O)(=O)c4ccc(NCC5CCOCC5)c([N+](=O)[O-])c4)c(Oc4cnc5[nH]ccc5c4)c3)CC2)=C(c2ccc(Cl)cc2)C1 [Venetoclax] + COc1cccc2cc(-c3nc([C@H]4CC[C@H](C(=O)O)CC4)n4ncnc(N)c34)[nH]c12 [OSI-027] (partner 0.5 µM)
The essentials:
as §1

As for UMC-11, the relative viability came out at 0.329 with Venetoclax + Vorinostat (first compound 0.01 µM); 0.29 with Venetoclax + Vorinostat (first compound 0.03162 µM); 0.274 with Venetoclax + Vorinostat (first compound 0.1 µM); 0.23 with Venetoclax + Vorinostat (first compound 0.3162 µM); 0.261 with Venetoclax + Vorinostat (first compound 1 µM); 0.965 with Selumetinib + Linsitinib (first compound 0.02 µM). In addition, the relative viability with Selumetinib + Linsitinib (first compound 0.06325 µM) was determined as 1.08; with Selumetinib + Linsitinib (first compound 0.2 µM), 0.972; with Selumetinib + Linsitinib (first compound 0.6325 µM), 0.984; with Selumetinib + Pictilisib (first compound 0.02 µM), 0.827; in the test with Selumetinib + Pictilisib (first compound 0.06325 µM), 0.772; with Selumetinib + Pictilisib (first compound 0.2 µM), 0.869. Besides, the relative viability came out at 0.922 with Selumetinib + Pictilisib (first compound 0.6325 µM); 0.439 with Venetoclax + OSI-027 (first compound 0.01 µM); 0.46 with Venetoclax + OSI-027 (first compound 0.03162 µM); 0.465 in the test with Venetoclax + OSI-027 (first compound 0.1 µM); 0.461 with Venetoclax + OSI-027 (first compound 0.3162 µM); 0.428 with Venetoclax + OSI-027 (first compound 1 µM).

The values above are taken from the supplement of paper PMC10307832.
